Measurements taken from patent US4196205A, “3-Acetoxymethyl-7-(iminoacetamido)-cephalosporanic acid derivatives” (priority 1976, dated 1980).
≈ marks a conversion by molar mass, not a printed value. Like-named read-outs stand apart in the source and are kept apart here.

Legend:
[1] = tested on: Streptococcus faecalis 5 432; assay: MIC, dilution in liquid medium; assay type: cell-based
Protocol: (§1) The method used was a dilution of a liquid medium where a series of tubes received the same quantity of a sterile nutritive media and increasing doses of the test compounds were placed therein. Then each tube was seeded with a bacterial strain and was incubated for 24 to 48 hours at 37° C. in an oven. The increasing inhibition was determined by transillumination to determine the minimum inhibiting concentration (MIC in […]) and the results are reported in the following Tables.

[2] = tested on: Bacillus subtilis ATCC 6 633; assay: MIC, dilution in liquid medium; assay type: cell-based; conditions: for MIC: Bacillus subtilis
Protocol: as §1

[3] = tested on: Staphylococcus aureus ATCC 5 638 Pen-Sensible = UC 1061; assay: MIC, dilution in liquid medium; assay type: cell-based
Protocol: as §1

[4] = tested on: Klebsiella pneumoniae 2 536 Resistant Gentamicine; assay: MIC, dilution in liquid medium; assay type: cell-based; conditions: Klebsiella pneumoniae
Protocol: as §1

[5] = tested on: Escherichia Coli Resistant Tetracycline ATCC 11 303 = UC 1261; assay: MIC, dilution in liquid medium; assay type: cell-based; conditions: Escherichia coli
Protocol: as §1

[6] = tested on: Streptococcus pyogenes A 561; assay: MIC, dilution in liquid medium; assay type: cell-based; conditions: Streptococcus pyogenes
Protocol: as §1

[7] = tested on: Staphylococcus aureus UC 1 128 Pen-Resistant; assay: MIC, dilution in liquid medium; assay type: cell-based; conditions: for MIC: Staphylococcus aureus
Protocol: as §1

[8] = tested on: Escherichia Coli Sensible Tetracycline ATCC 9 637 = 1020; assay: MIC, dilution in liquid medium; assay type: cell-based; conditions: for MIC: Escherichia coli
Protocol: as §1

[9] = tested on: Proteus vulgaris (indol+) A 232; assay: MIC, dilution in liquid medium; assay type: cell-based; conditions: for MIC: Proteus vulgaris
Protocol: as §1

[10] = tested on: Escherichia Coli Resistant Gentamicine, Tobramycine R 55 123 D; assay: MIC, dilution in liquid medium; assay type: cell-based; conditions: Escherichia coli
Protocol: as §1

[11] = tested on: Salmonella typhimurium 420; assay: MIC, dilution in liquid medium; assay type: cell-based; conditions: for MIC: Salmonella enterica, TYPHIMURIUM
Protocol: as §1

[12] = tested on: Serratia Resistant Gentamicine 2 532; assay: MIC, dilution in liquid medium; assay type: cell-based
Protocol: as §1

[13] = tested on: Proteus mirabilis (indol-) A 235; assay: MIC, dilution in liquid medium; assay type: cell-based; conditions: Proteus mirabilis
Protocol: as §1

[14] = tested on: Staphylococcus aureus exp. n° 54 146; assay: MIC, dilution in liquid medium; assay type: cell-based; conditions: Staphylococcus aureus
Protocol: as §1

[15] = tested on: Providencia Du 48; assay: MIC, dilution in liquid medium; assay type: cell-based; conditions: Providencia
Protocol: as §1

[16] = tested on: Pseudomonas 3 935 Exp. SG; assay: MIC, dilution in liquid medium; assay type: cell-based; conditions: for MIC: Pseudomonas, 3935EXP.SG
Protocol: as §1

[17] = tested on: Escherichia Coli Exp. TO26 B6; assay: MIC, dilution in liquid medium; assay type: cell-based; conditions: for MIC: Escherichia coli
Protocol: as §1

[18] = tested on: Streptococcus faecalis 99 F 74; assay: MIC, dilution in liquid medium; assay type: cell-based; conditions: Enterococcus faecalis
Protocol: as §1

[19] = tested on: Klebsiella pneumoniae Exp. 52 145; assay: MIC, dilution in liquid medium; assay type: cell-based; conditions: Klebsiella pneumoniae
Protocol: as §1

[20] = tested on: Proteus Mirabilis A 235; assay: Experimental infection of Proteus Mirabilis in mice; assay type: in vivo
Protocol: Groups of 10 mice with an average weight of 22 g received intraperitoneally 0.5 ml of a 24 hour old culture in oxoid bouillon of Proteus Mirabilis A 235 diluted 1/4 with distilled water. The mice then received subcutaneously the compound of Examples 11 or 15 one hour and 5 and 24 hours after the infection and the results are reported in the following Table.

[21] = Enterococcus faecalis, 5432, 48 h, 48 H

CCO/N=C(\C(=O)N[C@@H]1C(=O)N2C(C(=O)O)=C(COC(C)=O)CS[C@H]12)c1csc(N)n1 [Example 11, 3-acetoxymethyl-7-[2-(2-amino-4-thiazolyl)-2-ethoxyiminoacetamido]-ceph-3-eme-4-carboxylic acid]
MIC [1, 21]: 40 µg/mL (≈ 85.2 µM) | MIC ([1]; Enterococcus faecalis, 5432, 48 h, read-out: M.I.C.): 10 µg/mL (≈ 21.3 µM) | M.I.C. ([2]; 24 H): 0,5 μg/ml | MIC ([2]; ATCC6, 24 h, 24 H, read-out: M.I.C.): 0.4 µg/mL (≈ 0.852 µM) | MIC ([2]; ATCC6, 48 h, 48 H, read-out: M.I.C.): 0.4 µg/mL (≈ 0.852 µM) | MIC ([3]; 24 h): 2 µg/mL (≈ 4.26 µM) | MIC ([4]; 24 h): 2 µg/mL (≈ 4.26 µM) | MIC ([4]; 24 h, read-out: M.I.C.): 10 µg/mL (≈ 21.3 µM) | MIC ([4]; 48 h): 2 µg/mL (≈ 4.26 µM) | MIC ([4]; 48 h, read-out: M.I.C.): 10 µg/mL (≈ 21.3 µM) | MIC ([5]; 24 h): ≤ 0.2 µg/mL | MIC ([5]; 24 h, read-out: M.I.C.): 0.5 µg/mL (≈ 1.06 µM) | MIC ([6]; A561, 24 h, 24 H, read-out: M.I.C.): 0.02 µg/mL (≈ 0.0426 µM) | MIC ([6]; A561, 48 h, 48 H, read-out: M.I.C.): 0.02 µg/mL (≈ 0.0426 µM) | M.I.C. ([7]; 24 H): 3 µg/mL | M.I.C. ([7]; 48 H): 5 µg/mL | MIC ([7]; UC1, 24 h, 24 H): 2 µg/mL (≈ 4.26 µM) | MIC ([7]; UC1, 48 h, 48 H): 3 µg/mL (≈ 6.39 µM) | M.I.C. ([8]; 24 H): 2 µg/mL | M.I.C. ([8]; 48 H): 2 µg/mL | MIC ([8]; ATCC9, 24 h, 24 H): 1 µg/mL (≈ 2.13 µM) | MIC ([8]; ATCC9, 48 h, 48 H): 1 µg/mL (≈ 2.13 µM) | M.I.C. ([9]; 48 H): 1 µg/mL | MIC ([9]; 24 h, read-out: M.I.C.): 0.5 µg/mL (≈ 1.06 µM) | MIC ([9]; 48 h): 2 µg/mL (≈ 4.26 µM) | MIC ([10]; 24 h): 1 µg/mL (≈ 2.13 µM) | MIC ([10]; 24 h, read-out: M.I.C.): 0.6 µg/mL (≈ 1.28 µM) | MIC ([10]; 48 h): 1 µg/mL (≈ 2.13 µM) | MIC ([10]; 48 h, read-out: M.I.C.): 0.6 µg/mL (≈ 1.28 µM) | M.I.C. ([11]; 24 H): 2 µg/mL | M.I.C. ([11]; 48 H): 2 µg/mL | MIC ([11]; 24 h): 1 µg/mL (≈ 2.13 µM) | MIC ([11]; 48 h): 1 µg/mL (≈ 2.13 µM) | MIC ([12]; 24 h): 2 µg/mL (≈ 4.26 µM) | MIC ([13]; 24 h, read-out: M.I.C.): 0.5 µg/mL (≈ 1.06 µM) | MIC ([13]; 48 h, read-out: M.I.C.): 0.5 µg/mL (≈ 1.06 µM) | MIC ([14]; 24 h): 2 µg/mL (≈ 4.26 µM) | MIC ([15]; DU48, 24 h, 24 H): 5 µg/mL (≈ 10.6 µM) | MIC ([15]; DU48, 48 h, 48 H): 5 µg/mL (≈ 10.6 µM) | M.I.C. ([16]; 24 H): 40 µg/mL | MIC ([16]; 24 h): 20 µg/mL (≈ 42.6 µM) | MIC ([16]; 48 h): 40 µg/mL (≈ 85.2 µM) | M.I.C. ([17]; 24 H): 0.4 µg/mL | M.I.C. ([17]; 48 H): 0.4 µg/mL | MIC ([18]; 99F74, 48 h, 48 H): 20 µg/mL (≈ 42.6 µM) | MIC ([19]; EXP.52145, 24 h, 24 H, read-out: M.I.C.): 0.2 µg/mL (≈ 0.426 µM) | MIC ([19]; EXP.52145, 48 h, 48 H, read-out: M.I.C.): 0.2 µg/mL (≈ 0.426 µM) | MORTALITY AFTER 21H30 ([20]; 0.025 mg subcutaneously): 3 | MORTALITY AFTER 22H15 ([20]; 0.025 mg subcutaneously): 1 | MORTALITY AFTER 24H20 ([20]; 0.025 mg subcutaneously): 1 | MORTALITY AFTER 28H ([20]; 0.025 mg subcutaneously): 2 | MORTALITY AFTER 46H ([20]; 0.025 mg subcutaneously): 2 | MORTALITY AFTER 53H ([20]; 0.025 mg subcutaneously): 1 | Mice Alive on the 8th day ([20]; 0.025 mg subcutaneously): 0/10 | MORTALITY AFTER 22H15 ([20]; 0.05 mg subcutaneously): 1 | MORTALITY AFTER 24H20 ([20]; 0.05 mg subcutaneously): 1 | MORTALITY AFTER 31H45 ([20]; 0.05 mg subcutaneously): 1 | MORTALITY AFTER 70H ([20]; 0.05 mg subcutaneously): 2 | Mice Alive on the 8th day ([20]; 0.05 mg subcutaneously): 5/10 | MORTALITY AFTER 28H ([20]; 0.1 mg subcutaneously): 1 | MORTALITY AFTER 46H ([20]; 0.1 mg subcutaneously): 2 | Mice Alive on the 8th day ([20]; 0.1 mg subcutaneously): 7/10 | Mice Alive on the 8th day ([20]; 0.25 mg subcutaneously): 10/10 | Mice Alive on the 8th day ([20]; 0.5 mg subcutaneously): 10/10 | Mice Alive on the 8th day ([20]; 1 mg subcutaneously): 10/10

CO/N=C(/C(=O)NC1C(=O)N2C(C(=O)O)=C(COC(C)=O)CSC12)c1csc(N)n1 (stereo not drawn) [Product A, anti isomer of 3-acetoxymethyl-7-[2-(2-amino-4-thiazolyl)-2-methoxyimino-acetamido]-ceph-3-eme-4-carboxylic acid]
MIC ([1]; Enterococcus faecalis, 5432, 24 h, 24 H): > 40 µg/mL | MIC [1, 21]: > 40 µg/mL | MIC ([2]; ATCC6, 24 h, 24 H): 20 µg/mL (≈ 43.9 µM) | MIC ([2]; ATCC6, 48 h, 48 H): 20 µg/mL (≈ 43.9 µM) | MIC ([3]; 24 h): 40 µg/mL (≈ 87.8 µM) | MIC ([3]; 48 h): 40 µg/mL (≈ 87.8 µM) | MIC ([4]; 24 h): > 40 µg/mL | MIC ([4]; 48 h): > 40 µg/mL | MIC ([5]; 24 h): 2 µg/mL (≈ 4.39 µM) | MIC ([5]; 48 h): 2 µg/mL (≈ 4.39 µM) | MIC ([6]; A561, 24 h): 0.4 µg/mL (≈ 0.878 µM) | MIC ([6]; A561, 48 h): 0.4 µg/mL (≈ 0.878 µM) | MIC ([7]; UC1, 24 h, 24 H): > 40 µg/mL | MIC ([7]; UC1, 48 h, 48 H): > 40 µg/mL | MIC ([8]; ATCC9, 24 h, 24 H): 20 µg/mL (≈ 43.9 µM) | MIC ([8]; ATCC9, 48 h, 48 H): 40 µg/mL (≈ 87.8 µM) | MIC ([9]; 24 h): > 40 µg/mL | MIC ([9]; 48 h): > 40 µg/mL | MIC ([10]; 24 h, read-out: M.I.C.): 10 µg/mL (≈ 22 µM) | MIC ([10]; 48 h, read-out: M.I.C.): 10 µg/mL (≈ 22 µM) | MIC ([11]; 24 h): 20 µg/mL (≈ 43.9 µM) | MIC ([12]; 24 h): > 40 µg/mL | MIC ([12]; 48 h): > 40 µg/mL | MIC ([13]; 24 h): 2 µg/mL (≈ 4.39 µM) | MIC ([13]; 48 h): 2 µg/mL (≈ 4.39 µM) | MIC ([14]; 24 h): 40 µg/mL (≈ 87.8 µM) | MIC ([14]; 48 h): 40 µg/mL (≈ 87.8 µM) | MIC ([15]; DU48, 24 h, 24 H): 40 µg/mL (≈ 87.8 µM) | MIC ([15]; DU48, 48 h, 48 H): > 40 µg/mL | MIC ([16]; 24 h): > 40 µg/mL | MIC ([16]; 48 h): > 40 µg/mL | MIC ([17]; 24 h): 5 µg/mL (≈ 11 µM) | MIC ([17]; 48 h): 5 µg/mL (≈ 11 µM) | MIC ([18]; 99F74, 24 h, 24 H): > 40 µg/mL | MIC ([18]; 99F74, 48 h, 48 H): > 40 µg/mL | MIC ([19]; EXP.52145, 24 h, 24 H): 1 µg/mL (≈ 2.2 µM) | MIC ([19]; EXP.52145, 48 h, 48 H): 1 µg/mL (≈ 2.2 µM)
